Several values for one entry are separate records, joined by “and”; a condition that tells them apart may be missing. Identical values can stand only once.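 Briefly, cells in 96-well plates were exposed to five compound concentrations for 48 h, and endpoints were estimated by linear interpolation. GI50 is the concentration that inhibits growth by half. TGI is the concentration that stops growth completely.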
Tests used:
Test in all cases: NCI anticancer screen, dose series, 48 h
CCRF-CEM leukemia = system: CCRF-CEM leukemia
IGROV1 ovarian = system: IGROV1 ovarian
OVCAR-5 ovarian = system: OVCAR-5 ovarian
SK-MEL-28 melanoma = system: SK-MEL-28 melanoma
SN12C renal = system: SN12C renal
UO-31 renal = system: UO-31 renal
HOP-92 NSCLC = system: HOP-92 NSCLC
MDA-MB-435 = system: MDA-MB-435
NCI-H226 lung = system: NCI-H226 lung
HL-60(TB) leukemia = system: HL-60(TB) leukemia

Row | SMILES | TGI (CCRF-CEM leukemia) [µM] | TGI (IGROV1 ovarian) [µM] | TGI (OVCAR-5 ovarian) [µM] | TGI (SK-MEL-28 melanoma) [µM] | TGI (SN12C renal) [µM] | TGI (UO-31 renal) | GI50 (CCRF-CEM leukemia) | GI50 (HOP-92 NSCLC) [µM] | TGI (HOP-92 NSCLC) [µM] | GI50 (IGROV1 ovarian) [µM] | GI50 (MDA-MB-435) [µM] | TGI (MDA-MB-435) [µM] | GI50 (NCI-H226 lung) [µM] | TGI (NCI-H226 lung) [µM] | GI50 (OVCAR-5 ovarian) [µM] | GI50 (SK-MEL-28 melanoma) [µM] | GI50 (SN12C renal) [µM] | GI50 (UO-31 renal) [µM] | TGI (HL-60(TB) leukemia) [µM] | GI50 (HL-60(TB) leukemia) [µM]
1 | COc1ccc(CC(=O)c2cc(OC)c(OC)cc2C)cc1OC | > 100 | > 100 | > 100 | > 100 | > 100 | > 100 µM | – | – | – | – | – | – | – | – | – | – | – | – | – | –
2 | Cc1ccc(S(=O)(=O)N(C)C)cc1[N+](=O)[O-] | > 100 | > 100 | > 100 | > 100 | > 100 | > 100 µM | > 100 µM | > 100 | > 100 | 59.7 | > 100 | > 100 | > 100 | > 100 | > 100 | > 100 | > 100 | 21.5 | – | –
3 | C=C1C(=O)O[C@@H]2C[C@]3(C)[C@@H](C[C@H]12)[C@](C)(O)CC[C@@H]3O | > 100 | > 100 | > 100 | > 100 | > 100 | > 100 µM | – | – | > 100 | – | – | – | – | > 100 | – | – | – | – | – | –
4 | COc1ccc(-c2cc(C(=O)Nc3cccc(C(F)(F)F)c3)[nH]c(=S)n2)cc1 | > 100 | > 100 | > 100 | > 100 | > 100 | > 100 µM | – | – | > 100 | – | – | – | – | > 100 | – | – | – | – | > 100 | –
5 | Cc1c(Cl)ccc2c1NC(=O)C2(O)CC(=O)c1ccc(Cl)cc1Cl (stereo unspecified) | 22.4 | > 50 | > 50 | > 50 | > 50 | > 50 µM | – | – | > 50 | – | – | > 50 | – | > 50 | – | – | – | – | – | –
6 | O=C1CCC2(c3ccc(F)cc3)Nc3ccccc3N12 (stereo unspecified) | > 100 | > 100 | > 100 | > 100 | > 100 | > 100 µM | – | – | > 100 | – | – | – | – | > 100 | – | – | – | – | > 100 | –
7 | O=C(Cc1ccccc1)Oc1ccc2c(-c3ccccc3)c(C(=O)Nc3ccc(Cl)cc3)c(=O)oc2c1 | > 100 | > 100 | > 100 | > 100 | > 100 | > 100 µM | – | – | > 100 | – | – | – | – | > 100 | – | – | – | – | > 100 | –
8 | O=CC1=CCCC2(C1)OCCO2 | > 100 | > 100 | – | > 100 | > 100 | > 100 µM | – | – | > 100 | – | – | – | – | – | – | – | – | – | > 100 | –
9 | COC(=O)/C(=C/c1ccc(OC)cc1)C(C(=O)O)=C(C)C | > 100 | > 100 | > 100 | > 100 | > 100 | > 100 µM | – | – | > 100 | – | – | – | – | > 100 | – | – | – | – | > 100 | –
10 | COc1ccc(/C=C2/CN(C(=O)c3ccccc3F)C/C(=C\c3ccc(OC)cc3)C2=O)cc1 | > 100 | 11.3 | 28.8 | 7.93 | 10.9 | 6.69 µM | 2.76 µM | 10.3 | 39.6 | 3.43 | 2.48 | 9.93 | 29.5 | > 100 | 7.55 | 2.72 | 2.78 | 1.9 | – | –
11 | CN(C)CCNC(=O)c1ccc2ccc3cccnc3c2n1 | > 100 | > 100 | 47.8 | > 61.6 | > 92.9 | 47.9 µM | – | – | 65.2 | – | – | – | – | 39.6 | – | – | – | – | > 84 | –
12 | CCCCOC1CC2(c3ccc(OC)cc3)C(=O)c3ccccc3N2O1 (stereo unspecified) | > 100 | > 10 | > 10 | – | > 10 | > 10 µM | – | – | – | – | – | – | – | > 10 | – | – | – | – | – | –
13 | O=C(NC1CCCCC1)c1c(O)[nH]c(=S)[nH]c1=O | > 100 | > 100 | > 100 | > 100 | > 100 | > 100 µM | – | – | > 100 | – | – | – | – | > 100 | – | – | – | – | – | –
14 | CC(C)(C)C1CC[C@H]2c3c([nH]c4ccc(Br)cc34)[C@H]3C(=O)N(c4ccccc4)C(=O)[C@H]3[C@H]2C1 (stereo partly specified) | 20.1 | > 100 | > 100 | > 100 | 57.3 | > 100 µM | – | – | 78.7 | – | – | – | – | 81.8 | – | – | – | – | 35.1 | –
15 | [Cu+2].[Cu+2].[O-]c1ccccc1C=Nc1ccccc1[O-].[O-]c1ccccc1C=Nc1ccccc1[O-] | 21.3 | 12.2 | 32.6 | 26 | 27.3 | 25.2 µM | 3.33 µM | – | – | 3.33 | – | – | 20.4 | 36.5 | 17.7 | 13.3 | 13.7 | 12.6 | 7.24 | 2.52
16 | Cc1nc2sc(C(=O)Nc3cccc4ccccc34)c(N)c2cc1C(C)O (stereo unspecified) | > 50 | > 50 | > 50 | > 50 | > 50 | > 48.3 µM | 0.21 µM | 1.03 | > 47 | 0.308 | – | – | 0.28 | > 50 | 1.5 | 0.882 | 0.425 | 0.268 | 0.355 | 0.124
17 | O=C1OCC(c2ccc(O)c(O)c2)=C1c1cc(O)c(O)c(O)c1 | > 100 | > 100 | 34.6 | > 100 | 29.6 | > 100 µM | 30.4 µM | 2.76 | 18.2 | 37.4 | 17 | 32.5 | 69 | > 100 | 17.7 | 38.5 | 15.8 | 63.4 | – | –
18 | COc1ccc(CNc2cc(OC)cc(OC)c2)cc1 | > 100 | > 100 | > 100 | > 100 | > 100 | > 100 µM and 97.8 µM | 78.7 µM and 28.6 µM | – | > 100 | – | – | – | – | > 100 | > 78.1 | – | > 70.1 | – | > 100 | –
19 | C=CCN1C(=O)CS/C1=N\NC(=O)c1c(C)nc2sccn12 | > 100 | > 100 | > 100 | > 100 | > 100 | – | – | – | > 100 | – | – | – | – | > 100 | – | – | – | – | > 100 | –
